Measurements as given in patent publication US9040660B2, “Long-acting gastrin derivatives” (priority 2010, dated 2015).
Read-outs that look alike come from different tables or passages of the source. Numbered stars: 1 amine (or outer) side, 2 acyl side, 3 side chain; on linkers, the order of the positions; unused ones are H or OH. Peptide text beside a SMILES is read from it. * marks the point of attachment. C18 diacid = O=C(O)CCCCCCCCCCCCCCCCC(=O)*; γGlu = O=C(O)[C@H](CCC(=O)[*:2])N[*:1]; AEEA = NCCOCCOCC(=O)O

What was measured:
[1] = set-up: species or system Göttingen mini-pigs; details: minipig, in vivo, iv, 10 nmol/kg
Protocol: Assay (II): Minipig i.v. PK
Six male Göttingen mini-pigs weighing approximately 20 to 23 kg from Ellegaard Gottingen Minipigs A/S, Denmark were comprised in the study. The mini-pigs were dosed intra venous (i.v.) via a central catheter in vena cava caudalis. The catheter was flushed with 10 ml saline post administration. Blood was sampled from the central catheter. Test substances were dissolved in a vehicle consisting of in 50 mM sodium phosphate, […] sodium chloride, 0.05% tween80 pH 7.4. The pigs were dosed with 10 nmol of gastrin compound (such as gastrin derivative)/kg body weight or 10 nmol Gastrin-17/kg body weight. Blood samples were taken at the following time points: pre-dose, 5 minutes, 15 minutes, 30 minutes, 45 minutes, 1, 1.5, 2, 3, 4, 6, 8, 10, 24, 48, 72, 96, 120, 168, 192 and 216 hours post dosing. The blood samples were collected into test tubes containing EDTA buffer for stabilization and kept on ice for max. 20 minutes before centrifugation. The centrifugation procedure to separate plasma may be: 4° C., approx. 2500 g for 10 minutes. Plasma was collected and immediately transferred to Micronic tubes stored at −20° C. until assayed.
Blood samples were analysed for gastrin compound content using a competitive scintillation proximity assay (SPA). The assay is a radiometric-ligand binding assay using […]™ imaging particles. The assay involves a rabbit anti-human gastrin-17(2-17) polyclonal antibody, wherein the human gastrin-17(2-17) against which said antibody raised contained position 2-17 of SEQ ID NO:2 (said antibody is obtainable from professor Jens Rehfeld, Rigshospitalet, Copenhagen, Denmark), [^125I]-Tyr^12 gastrin I (human) (which has the sequence pG1u-[…][^125I]Tyr-Gly-Trp-Met-Asp-Phe-NH2, item no. NEX176010UC, […]® Waltham, Massachusetts, USA) and PS […]™ particles coated with anti-rabbit Ig antibodies. Gastrin compounds (in calibrators, controls or unknown samples) and [^125I]-Tyr12 human gastrin I will compete for the binding to the polyclonal rabbit anti human gastrin I antibody. The anti-rabbit Ig antibodies on the […]™ particles recognize the anti-gastrin antibodies bringing the [^125I-] gastrin molecules in close proximity to the […]™ particles resulting in light emission from the particles. The […]™ will image the emitted light that is reversely correlated to the amount of gastrin compound present in the sample. 5μL sample, calibrator or control was applied to white 384-well polystyrene plates followed by 10μantibody working solution (rabbit-anti-Gastrin serum from rabbit 2609 batch 11/10-73), 10μl tracer working solution and 10μl bead working solution. […] After exchanging the seal against a new one, the light emission was detected with a […]™ Multimodality Imaging System. […]
The concentration-response relationship was calculated using a four-parameter logistic model using non linear regression analysis and the output of the assay was the concentration of the respective gastrin analogue in pM. The in vivo plasma half life was determined by non-compartmental analysis (NCA) of plasma concentration-time profiles from each animal. NCA may be carried out as follows: Plasma concentration-time profiles were analyzed by non-compartmental pharmacokinetics analysis (NCA) using WinNonlin (Pharsight Inc., Mountain View, Calif., USA); NCA was performed using the individual plasma concentration-time profiles from each animal.
Half life of gastrin compounds was determined according to Assay (II).

[2] = target: T1, CCK2 receptor (gastrin receptor) (Homo sapiens, UniProt P32239); type: cell-based; details: [Leu15] Gastrin-17 = 100, NIH 3T3/CCK2R cells, calcium mobilization
T1 construct: expressed in transfected cells; host or cells: NIH 3T3/CCK2R cells (mouse fibroblast line overexpressing CCK2R, kept under G418 selection)
T1 sequence (P32239 1-447): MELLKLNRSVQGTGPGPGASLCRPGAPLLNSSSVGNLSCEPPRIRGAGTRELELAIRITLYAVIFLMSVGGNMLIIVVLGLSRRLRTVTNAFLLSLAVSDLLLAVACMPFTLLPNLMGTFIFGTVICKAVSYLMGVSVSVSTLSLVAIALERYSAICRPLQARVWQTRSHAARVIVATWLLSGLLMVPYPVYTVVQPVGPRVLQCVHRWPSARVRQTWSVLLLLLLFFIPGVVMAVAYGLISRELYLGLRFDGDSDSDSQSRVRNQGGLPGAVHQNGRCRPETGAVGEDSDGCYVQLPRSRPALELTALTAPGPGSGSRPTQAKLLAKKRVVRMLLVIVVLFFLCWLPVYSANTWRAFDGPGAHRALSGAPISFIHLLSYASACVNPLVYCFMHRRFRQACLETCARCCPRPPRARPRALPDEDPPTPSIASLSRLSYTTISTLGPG
Protocol: Assay (I): In Vitro Receptor Potency In vitro receptor potency was measured using a CCK2 receptor mediated calcium mobilization assay. The CCK2 receptor (gastrin receptor) signals via the heterotrimeric G-protein, Gq, to activate phospholipase C(PLC). This leads to generation of inositol-1,4,5-trisphosphate (IP3) that releases calcium from intracellular stores. The primary rise in cytosolic calcium concentration is followed by activation of calcium dependent calcium channels in the plasma membrane allowing extracellular calcium to enter the cell. The rise in calcium concentration is transient, but it can be measured in situ by loading the cells with a calcium dependent fluorescent probe and monitored by the use of 96- or 384-well fluorescence plate readers. In the current assay, NIH 3T3/CCK2R cells were seeded in black PolyLysin coated 384 well plates with clear bottom at 14000 cells per well and incubated overnight in 25 μl (per well) Gibco Nut. mix F-12 Glutamax medium with 10% FCS, 1% penicillin and streptomycin and 1 mg/ml […]418). The next day […] dye solution (Ca 5 probe from Molecular Devices, dissolved in HBSS/Hepes buffer pH 7.4 containing 0.1% Ovalbumin, 0.005% Tween 20, 3.5 μM Probenecid, 50 μM PDE inhibitor and 0.2% CaCl2) was added per well and the plate was incubated for 1 hour at room temperature. After incubation, these plates were loaded onto FLIPR Tetra from Molecular Devices together with the sample plates containing dilution series of gastrin analogues in HBSS/Hepes buffer with 30% DMSO. During the assay run, 1 μl sample was transferred from the sample plate to the assay plate. Beside the baseline fluorescence measurement, a second fluorescence measurement was performed after 30 seconds with both measurements using the […] 540 nm/590 nm. For each agonist concentration E=Emax. Emin was calculated. The concentration-response relationship was calculated using a four-parameter logistic model using non linear regression analysis (Prism 5.02, GraphPad Software). In vitro receptor potency of gastrin compounds was measured using Assay (I).

[3] = dog, in vivo; cited from earlier work
[4] = Table 2: N-terminal acylation/truncation series

half-life [1] | Relative Receptor Potency ([2]; Table 3: acylation position (Lys scan) series) | SMILES | Relative Receptor Potency [2, 4] | half life [3]
64 ± 6 h | – | CSCC[C@H](NC(=O)[C@H](Cc1c[nH]c2ccccc12)NC(=O)CNC(=O)[C@H](Cc1ccc(O)cc1)NC(=O)[C@H](C)NC(=O)[C@H](CCC(=O)O)NC(=O)[C@H](CCC(=O)O)NC(=O)[C@H](CCC(=O)O)NC(=O)[C@H](CCC(=O)O)NC(=O)[C@H](CCC(=O)O)NC(=O)[C@H](CC(C)C)NC(=O)[C@H](Cc1c[nH]c2ccccc12)NC(=O)[C@@H]1CCCN1C(=O)CNC(=O)[C@H](CCC(N)=O)NC(=O)COCCOCCNC(=O)COCCOCCNC(=O)CC[C@H](NC(=O)CCCCCCCCCCCCCCCCC(=O)O)C(=O)O)C(=O)N[C@@H](CC(=O)O)C(=O)N[C@@H](Cc1ccccc1)C(N)=O [N-alpha-#-gastrin-17, N-alpha-{2-(2-{2-[2-(2-{2-[4-Carboxy-4-(17-carboxyheptadecanoylamino)butyrylamino]ethoxy}-ethoxy)acetylamino]-ethoxy}ethoxy)acetyl}[Gln1] gastrin-17 (A)] | – | –
109 ± 26 h | 57 | CC(C)C[C@H](NC(=O)[C@H](Cc1c[nH]c2ccccc12)NC(=O)CNC(=O)[C@H](Cc1ccc(O)cc1)NC(=O)[C@H](C)NC(=O)[C@H](CCC(=O)O)NC(=O)[C@H](CCC(=O)O)NC(=O)[C@H](CCC(=O)O)NC(=O)[C@H](CCC(=O)O)NC(=O)[C@H](CCC(=O)O)NC(=O)[C@H](CC(C)C)NC(=O)[C@H](Cc1c[nH]c2ccccc12)NC(=O)[C@@H]1CCCN1C(=O)CNC(=O)[C@H](CCC(N)=O)NC(=O)COCCOCCNC(=O)COCCOCCNC(=O)CC[C@H](NC(=O)CCCCCCCCCCCCCCCCC(=O)O)C(=O)O)C(=O)N[C@@H](CC(=O)O)C(=O)N[C@@H](Cc1ccccc1)C(N)=O [N-α-#-[Leu15] Gastrin-17, N-alpha-{2-(2-{2-[2-(2-{2-[4-Carboxy-4-(17-carboxyheptadecanoylamino)butyrylamino]ethoxy}-ethoxy)acetylamino]-ethoxy}ethoxy)acetyl}[Gln1,Leu15] gastrin-17] ({C18 diacid-γGlu-AEEA-AEEA}-QGPWLEEEEEAYGWLDF-NH2) | 76 | –
0.058 ± 0.007 h | – | CSCC[C@H](NC(=O)[C@H](Cc1c[nH]c2ccccc12)NC(=O)CNC(=O)[C@H](Cc1ccc(O)cc1)NC(=O)[C@H](C)NC(=O)[C@H](CCC(=O)O)NC(=O)[C@H](CCC(=O)O)NC(=O)[C@H](CCC(=O)O)NC(=O)[C@H](CCC(=O)O)NC(=O)[C@H](CCC(=O)O)NC(=O)[C@H](CC(C)C)NC(=O)[C@H](Cc1c[nH]c2ccccc12)NC(=O)[C@@H]1CCCN1C(=O)CNC(=O)[C@@H](N)CCC(N)=O)C(=O)N[C@@H](CC(=O)O)C(=O)N[C@@H](Cc1ccccc1)C(N)=O [gastrin-17, reference compound] | – | 2 to 8 min

SMILES | half-life [1] | Relative Receptor Potency ([2]; Table 3: acylation position (Lys scan) series) | Relative Receptor Potency [2, 4] | half life [3]
CC(C)C[C@H](NC(=O)[C@H](Cc1c[nH]c2ccccc12)NC(=O)CNC(=O)[C@H](Cc1ccc(O)cc1)NC(=O)[C@H](C)NC(=O)[C@H](CCC(=O)O)NC(=O)[C@H](CCC(=O)O)NC(=O)[C@H](CCC(=O)O)NC(=O)[C@H](CCC(=O)O)NC(=O)[C@H](CCC(=O)O)NC(=O)[C@H](CC(C)C)NC(=O)[C@H](Cc1c[nH]c2ccccc12)NC(=O)COCCOCCNC(=O)COCCOCCNC(=O)CC[C@H](NC(=O)CCCCCCCCCCCCCCCCC(=O)O)C(=O)O)C(=O)N[C@@H](CC(=O)O)C(=O)N[C@@H](Cc1ccccc1)C(N)=O [N-α-#-[Leu15] Gastrin-17 (4-17), N-alpha-{2-(2-{2-[2-(2-{2-[4-Carboxy-4-(17-carboxyheptadecanoylamino)butyrylamino]ethoxy}-ethoxy)acetylamino]-ethoxy}ethoxy)acetyl}[Leu15] gastrin-17 (4-17)] ({C18 diacid-γGlu-AEEA-AEEA}-WLEEEEEAYGWLDF-NH2) | 95 h | – | 58 | –
CC(C)C[C@H](NC(=O)[C@H](Cc1c[nH]c2ccccc12)NC(=O)CNC(=O)[C@H](Cc1ccc(O)cc1)NC(=O)[C@H](C)NC(=O)[C@H](CCC(=O)O)NC(=O)[C@H](CCC(=O)O)NC(=O)[C@H](CCC(=O)O)NC(=O)[C@H](CCC(=O)O)NC(=O)COCCOCCNC(=O)COCCOCCNC(=O)CC[C@H](NC(=O)CCCCCCCCCCCCCCCCC(=O)O)C(=O)O)C(=O)N[C@@H](CC(=O)O)C(=O)N[C@@H](Cc1ccccc1)C(N)=O [N-α-#-[Leu15] Gastrin-17 (7-17), N-alpha-{2-(2-{2-[2-(2-{2-[4-Carboxy-4-(17-carboxyheptadecanoylamino)butyrylamino]ethoxy}-ethoxy)acetylamino]-ethoxy}ethoxy)acetyl}[Leu15] gastrin-17 (7-17)] ({C18 diacid-γGlu-AEEA-AEEA}-EEEEAYGWLDF-NH2) | ~95 h | – | 39 | –
